# How the values were obtained:
# full length human RORγt = target: T1, full length human RORγt (Homo sapiens, UniProt P51449); experiment: 5×RORE based luciferase assay; assay type: cell-based; details: COS-7 cells transfected with 5×RORE-Luc and hRORγt, 18-20 h treatment
# T1 construct: full length human RORγt together in COS-7 cells; expressed in transfected cells; host or cells: COS-7
# T1 sequence (P51449 1-497 isoform P51449-2): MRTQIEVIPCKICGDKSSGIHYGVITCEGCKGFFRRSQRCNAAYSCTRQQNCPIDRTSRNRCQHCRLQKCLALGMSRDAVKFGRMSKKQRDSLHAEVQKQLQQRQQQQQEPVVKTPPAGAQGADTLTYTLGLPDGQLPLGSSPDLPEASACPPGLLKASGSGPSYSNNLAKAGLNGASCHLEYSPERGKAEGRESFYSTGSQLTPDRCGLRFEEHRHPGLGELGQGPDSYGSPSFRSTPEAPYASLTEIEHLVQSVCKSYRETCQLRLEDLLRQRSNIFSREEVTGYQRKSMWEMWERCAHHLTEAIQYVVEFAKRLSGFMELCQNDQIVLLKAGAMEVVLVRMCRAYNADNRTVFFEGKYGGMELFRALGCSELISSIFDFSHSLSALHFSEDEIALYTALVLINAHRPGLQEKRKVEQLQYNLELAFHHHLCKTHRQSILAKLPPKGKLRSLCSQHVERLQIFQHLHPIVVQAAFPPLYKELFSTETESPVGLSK
# Description: Human RORγt (hRORγt) inhibitors were screened in RORE (RORγt Response Element) based Luciferase assay by transient transfection of 5×RORE (5 tandem repeats of RORγt Response Element) and full length human RORγt together in COS-7 cells. COS-7 cells were maintained as monolayer in complete DMEM (High Glucose) medium in presence of 2 mM Glutamin and 1× Sodium Pyruvate. Day before transfection, 15000 cells were seeded in 96 well cell culture plate in 100 μl antibiotic free medium and incubated at 37° C. in 5% CO2 containing humidified chamber O/N. Prior to transfection, cells were fed with fresh complete growth medium and incubated until the addition of transfection complex. Transfection complex for the required numbers of wells were prepared from pGL2-promoter-5×RORE-Luc plasmid, pcDNA3.1 (+)-hRORγt expression plasmid, pβ-GAL plasmid (transfection control), and Lipofectamine 3000 (Invitrogen). 50 μl of transfection complex were added in 100 μl of complete medium to respective wells, mixed gently and plate was incubated for 5-6 h at 37° C. in 5% CO2 containing humidified chamber. After 5 h of transfection, content of the wells were aspirated and cells were treated with increasing concentration of RORγt inverse agonist in medium devoid of serum with a final DMSO concentration of 0.2% for 18-20 h at 37° C. in 5% CO2 containing humidified chamber. Next day, cells were lysed and the lysates were assayed for luciferase and β-GAL activity using Promega's luciferase assay system and an in-house made β-GAL assay buffer respectively. Luciferase signals were normalized with β-GAL and % activity was determined with respect to that of 10 nM control ligand.
# IC50 of selected compounds were then determined by nonlinear regression analysis of % activity, plotted against compound concentration (Table 4).
# [1] = system: secreted IL-17 in peripheral blood mononuclear cells (PBMCs); experiment: Human IL-17 inhibition assay; assay type: cell-based; details: PBMC, anti-CD3/anti-CD28, 72 h, read-out: IL17 IC50
# Description: Peripheral blood mononuclear cells (PBMCs) were isolated from healthy volunteers and subjected to T cell polarization assay. Two million PBMCs were placed on anti-CD3 (Biolegend, US) coated 96-well plates and 1 μg/mL of anti-CD28 (Biolegend, US) was added along with RORγt inhibitors or the vehicle control and incubated at 37° C. and 5% CO2 for 72 h. At the end of incubation time, the supernatant was collected and analyzed for secreted IL-17 using sandwich enzyme immunoassay (Mabtech AB, Sweden). The results were analyzed using Graphpad Prism and the half-maximal inhibitory concentrations (IC50) of the test compounds were derived (Table 4).
SMILES,IC50 (full length human RORγt) [nM],IC50 [1] [nM]
"CCS(=N)(=O)c1ccc(CC(=O)Nc2cc(Cl)c(C3(c4noc(-c5ccc(F)cc5)n4)CC3)c(Cl)c2)cc1 (stereo not drawn) [Example 61, N-(3,5-dichloro-4-(1-(5-(4-fluorophenyl)-1,2,4-oxadiazol-3-yl)cyclopropyl)phenyl)-2-(4-(ethylsulfonimidoyl)phenyl)acetamide]",9.2,35
"O=C(Cc1ccc(S(=O)(=O)NC2CC2)cc1)Nc1cc(Cl)c(C2(c3noc(-c4ccc(F)cc4)n3)CC2)c(Cl)c1 [Example 63, 2-(4-(N-cyclopropylsulfamoyl)phenyl)-N-(3,5-dichloro-4-(1-(5-(4-fluorophenyl)-1,2,4-oxadiazol-3-yl)cyclopropyl)phenyl)acetamide]",11,18
"O=C(Cc1ccc(S(=O)(=O)NC2CC2)cc1)Nc1cc(Cl)c(C2(c3nc4ccc(F)cc4o3)CC2)c(Cl)c1 [Example 65, 2-(4-(N-cyclopropylsulfamoyl)phenyl)-N-(3,5-dichloro-4-(1-(6-fluorobenzo[d]oxazol-2-yl)cyclopropyl)phenyl)acetamide]",2.4,6
"CCS(=O)(=O)c1ccc(CC(=O)Nc2cc(Cl)c(C3(c4noc(-c5ccc(F)cc5F)n4)CC3)c(Cl)c2)cn1 [Example 69, N-(3,5-dichloro-4-(1-(5-(2,4-difluorophenyl)-1,2,4-oxadiazol-3-yl)cyclopropyl)phenyl)-2-(6-(ethylsulfonyl)pyridin-3-yl)acetamide]",6.4,22.4
"CCS(=O)(=O)c1ccc(CC(=O)Nc2cc(Cl)c(C3(c4noc(-c5ccc(Cl)c(Cl)c5)n4)CC3)c(Cl)c2)cn1 [Example 71, N-(3,5-dichloro-4-(1-(5-(3,4-dichlorophenyl)-1,2,4-oxadiazol-3-yl)cyclopropyl)phenyl)-2-(6-(ethylsulfonyl)pyridin-3-yl)acetamide]",15.7,32
"CCS(=O)(=O)c1ccc(CC(=O)Nc2cc(Cl)c(C3(c4noc(-c5ccc(Cl)cc5)n4)CC3)c(Cl)c2)cn1 [Example 72, N-(3,5-dichloro-4-(1-(5-(4-chlorophenyl)-1,2,4-oxadiazol-3-yl)cyclopropyl)phenyl)-2-(6-(ethylsulfonyl)pyridin-3-yl)acetamide]",20,20.8
"CCS(=O)(=O)c1ccc(CC(=O)Nc2cc(Cl)c(C3(c4noc(-c5ccc(C#N)cc5)n4)CC3)c(Cl)c2)cn1 [Example 73, N-(3,5-dichloro-4-(1-(5-(4-cyanophenyl)-1,2,4-oxadiazol-3-yl)cyclopropyl)phenyl)-2-(6-(ethylsulfonyl)pyridin-3-yl)acetamide]",17.6,23.4
"CCS(=O)(=O)c1ccc(CC(=O)Nc2cc(Cl)c(C3(c4nnc(-c5ccc(F)cc5)o4)CC3)c(Cl)c2)cc1 [Example 79, N-(3,5-dichloro-4-(1-(5-(4-fluorophenyl)-1,3,4-oxadiazol-2-yl)cyclopropyl)phenyl)-2-(4-(ethylsulfonyl)phenyl)acetamide]",12.3,39

# Further lines, with some results ahead:
IC50 (full length human RORγt) [nM],SMILES,IC50 [1] [nM]
1.9,"CCS(=O)(=O)c1ccc(CC(=O)Nc2cc(Cl)c(C3(c4noc(-c5ccc(C#N)cc5)n4)CC3)c(Cl)c2)nc1 [Example 53, N-(3,5-dichloro-4-(1-(5-(4-cyanophenyl)-1,2,4-oxadiazol-3-yl)cyclopropyl)phenyl)-2-(5-(ethylsulfonyl)pyridin-2-yl)acetamide]",48
3.4,"CCS(=O)(=O)c1ccc(CC(=O)Nc2cc(Cl)c(C3(c4nc5ccc(F)cc5o4)CC3)c(Cl)c2)nc1 [Example 58, N-(3,5-dichloro-4-(1-(6-fluorobenzo[d]oxazol-2-yl)cyclopropyl)phenyl)-2-(5-(ethylsulfonyl)pyridin-2-yl)acetamide]",23.3
15.9,"O=C(Cc1ccc(S(=O)(=O)NC2CC2)cc1)Nc1cc(Cl)c(C2(c3noc(-c4ccc(C(F)(F)F)cc4)n3)CC2)c(Cl)c1 [Example 64, 2-(4-(N-cyclopropylsulfamoyl)phenyl)-N-(3,5-dichloro-4-(1-(5-(4-(trifluoromethyl)phenyl)-1,2,4-oxadiazol-3-yl)cyclopropyl)phenyl)acetamide]",63
9.6,"CCS(=O)(=O)c1ccc(CC(=O)Nc2cc(Cl)c(C3(c4noc(-c5ccc(F)c(F)c5)n4)CC3)c(Cl)c2)cn1 [Example 68, N-(3,5-dichloro-4-(1-(5-(3,4-difluorophenyl)-1,2,4-oxadiazol-3-yl)cyclopropyl)phenyl)-2-(6-(ethylsulfonyl)pyridin-3-yl)acetamide]",42.7
17,"CCS(=O)(=O)c1ccc(CC(=O)Nc2cc(Cl)c(C3(c4noc(-c5ccc(F)c(Cl)c5)n4)CC3)c(Cl)c2)cn1 [Example 70, N-(3,5-dichloro-4-(1-(5-(3-chloro-4-fluorophenyl)-1,2,4-oxadiazol-3-yl)cyclopropyl)phenyl)-2-(6-(ethylsulfonyl)pyridin-3-yl)acetamide]",22
23.9,"CCS(=O)(=O)c1ccc(CC(=O)Nc2cc(Cl)c(C3(c4nc5ccc(F)cc5o4)CC3)c(Cl)c2)cn1 [Example 74, N-(3,5-dichloro-4-(1-(6-fluorobenzo[d]oxazol-2-yl)cyclopropyl)phenyl)-2-(6-(ethylsulfonyl)pyridin-3-yl)acetamide]",23.8
7.9,"CCS(=O)(=O)c1cnc(CC(=O)Nc2cc(Cl)c(C3(c4nc5ccc(F)cc5o4)CC3)c(Cl)c2)cn1 [Example 78, N-(3,5-dichloro-4-(1-(6-fluorobenzo[d]oxazol-2-yl)cyclopropyl)phenyl)-2-(5-(ethylsulfonyl)pyrazin-2-yl)acetamide]",47.3

# — patent US20190152962A1, “CYCLOPROPYL DERIVATIVES AS ROR-GAMMA MODULATORS” (CADILA HEALTHCARE LIMITED, priority 2016, published 2019)
